According to patent publication US12692269B2, “Therapeutic compounds” (Genentech, Inc., priority 2019, dated 2026):

Tests used:
Type in all cases: binding
TEAD4 YAP50-100 = TEAD4 YAP50-100 (Homo sapiens, UniProt Q15561); assay: TEAD4-YAP HTRF (TR-FRET) protein-protein interaction assay; details: TEAD4, YAP peptide 50-100, HTRF; for EC50: read-out: TEAD4 YAP50-100 HTRF combined: EC50
Outline: (§1)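 His-tagged TEAD YAP-binding domain (aa 217-447) pre-bound to Eu anti-His antibody, then incubated 30 min with compound before adding biotinylated YAP (aa 50-100) or TAZ (aa 13-57) peptide with streptavidin-XL665. After 60 min at room temperature, TR-FRET 665/615 nm ratio read; IC50/EC50 from four-parameter fit.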

TEAD1 YAP50-100 = TEAD1 YAP50-100 (Homo sapiens, UniProt P28347); assay: TEAD1-YAP HTRF (TR-FRET) protein-protein interaction assay; details: TEAD1, YAP peptide 50-100, HTRF; for EC50: read-out: TEAD1 YAP50-100 HTRF combined: EC50
Chain of TEAD1 YAP50-100 (P28347 167-426 limits assumed): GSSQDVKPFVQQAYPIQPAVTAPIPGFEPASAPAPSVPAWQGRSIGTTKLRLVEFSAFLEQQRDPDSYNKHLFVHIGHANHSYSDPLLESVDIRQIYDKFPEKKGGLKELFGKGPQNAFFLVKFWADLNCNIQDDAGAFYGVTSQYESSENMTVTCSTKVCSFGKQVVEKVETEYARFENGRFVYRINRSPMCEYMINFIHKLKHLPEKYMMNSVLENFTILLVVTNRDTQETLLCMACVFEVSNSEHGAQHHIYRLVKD
Outline: as §1

TEAD2 YAP50-100 = TEAD2 YAP50-100 (Homo sapiens, UniProt Q15562); assay: TEAD2-YAP HTRF (TR-FRET) protein-protein interaction assay; details: TEAD2, YAP peptide 50-100, HTRF; for EC50: read-out: TEAD2 YAP50-100 HTRF combined: EC50
Chain of TEAD2 YAP50-100 (Q15562 217-447): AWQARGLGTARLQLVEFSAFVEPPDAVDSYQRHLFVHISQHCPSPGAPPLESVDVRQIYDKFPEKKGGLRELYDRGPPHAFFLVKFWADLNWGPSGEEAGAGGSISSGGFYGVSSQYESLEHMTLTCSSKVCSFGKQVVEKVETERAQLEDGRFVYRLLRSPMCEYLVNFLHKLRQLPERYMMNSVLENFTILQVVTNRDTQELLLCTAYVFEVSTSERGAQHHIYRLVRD
Outline: as §1

[1] = target: TEAD3 TAZ (amino acids 13-57) (Homo sapiens, UniProt Q99594); assay: TEAD3-TAZ HTRF (TR-FRET) protein-protein interaction assay; details: for TEAD3 TAZ HTRF combined: Max % Inhibition: TEAD3, TAZ peptide; for EC50: TEAD3-TAZ HTRF, TR-FRET 665 nm/615 nm, read-out: TEAD3 TAZ HTRF combined: EC50
Chain of TEAD3 TAZ (amino acids 13-57) (Q99594 173-435 limits assumed): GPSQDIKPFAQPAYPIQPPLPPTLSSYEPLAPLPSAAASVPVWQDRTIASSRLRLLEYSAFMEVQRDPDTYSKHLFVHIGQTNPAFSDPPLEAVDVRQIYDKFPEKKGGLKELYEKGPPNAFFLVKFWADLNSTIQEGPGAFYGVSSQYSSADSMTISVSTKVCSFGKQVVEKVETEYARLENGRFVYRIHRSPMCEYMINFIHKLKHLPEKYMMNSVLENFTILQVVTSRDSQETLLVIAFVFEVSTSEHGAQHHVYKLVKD
Outline: as §1

[2] = target: TEAD2 TAZ (amino acids 13-57) (Homo sapiens, UniProt Q15562); assay: TEAD2-TAZ HTRF (TR-FRET) protein-protein interaction assay; details: for TEAD2 TAZ HTRF combined: Max % Inhibition: TEAD2, TAZ peptide; for EC50: TEAD2-TAZ HTRF, TR-FRET 665 nm/615 nm, read-out: TEAD2 TAZ HTRF combined: EC50
Chain of TEAD2 TAZ (amino acids 13-57) (Q15562 217-447): as the sequence (Q15562 217-447) above
Outline: as §1

[3] = target: TEAD4 TAZ (amino acids 13-57) (Homo sapiens, UniProt Q15561); assay: TEAD4-TAZ HTRF (TR-FRET) protein-protein interaction assay; details: for TEAD4 TAZ HTRF combined: Max % Inhibition: TEAD4, TAZ peptide; for EC50: TEAD4-TAZ HTRF, TR-FRET 665 nm/615 nm, read-out: TEAD4 TAZ HTRF combined: EC50
Chain of TEAD4 TAZ (amino acids 13-57) (Q15561 217-434 limits assumed): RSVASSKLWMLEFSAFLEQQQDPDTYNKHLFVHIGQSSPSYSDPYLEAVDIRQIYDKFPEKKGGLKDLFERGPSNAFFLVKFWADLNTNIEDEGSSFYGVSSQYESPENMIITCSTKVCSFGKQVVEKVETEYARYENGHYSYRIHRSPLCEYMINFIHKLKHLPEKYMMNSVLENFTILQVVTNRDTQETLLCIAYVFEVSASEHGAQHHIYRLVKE
Outline: as §1

TEAD3 YAP50-100 = TEAD3 YAP50-100 (Homo sapiens, UniProt Q99594); assay: TEAD3-YAP HTRF (TR-FRET) protein-protein interaction assay; details: TEAD3, YAP peptide 50-100, HTRF; for EC50: read-out: TEAD3 YAP50-100 HTRF combined: EC50
Chain of TEAD3 YAP50-100 (Q99594 173-435 limits assumed): as the sequence (Q99594 173-435 limits assumed) above
Outline: as §1

[4] = target: TEAD1 TAZ (amino acids 13-57) (Homo sapiens, UniProt P28347); assay: TEAD1-TAZ HTRF (TR-FRET) protein-protein interaction assay; details: for TEAD1 TAZ HTRF combined: Max % Inhibition: TEAD1, TAZ peptide; for EC50: TEAD1-TAZ HTRF, TR-FRET 665 nm/615 nm, read-out: TEAD1 TAZ HTRF combined: EC50
Chain of TEAD1 TAZ (amino acids 13-57) (P28347 167-426 limits assumed): as the sequence (P28347 167-426 limits assumed) above
Outline: as §1

Chain of TEAD4 YAP50-100 (Q15561 217-434 limits assumed): as the sequence (Q15561 217-434 limits assumed) above

| TEAD4 YAP50-100 HTRF combined: Max % Inhibition (TEAD4 YAP50-100) | EC50 (TEAD4 YAP50-100) | TEAD1 YAP50-100 HTRF combined: Max % Inhibition (TEAD1 YAP50-100) | EC50 (TEAD1 YAP50-100) | TEAD2 YAP50-100 HTRF combined: Max % Inhibition (TEAD2 YAP50-100) | EC50 (TEAD2 YAP50-100) | TEAD3 TAZ HTRF combined: Max % Inhibition [1] | EC50 [1] | TEAD2 TAZ HTRF combined: Max % Inhibition [2] | EC50 [2] | TEAD4 TAZ HTRF combined: Max % Inhibition [3] | EC50 [3] | TEAD3 YAP50-100 HTRF combined: Max % Inhibition (TEAD3 YAP50-100) | EC50 (TEAD3 YAP50-100) | TEAD1 TAZ HTRF combined: Max % Inhibition [4] | EC50 [4] | SMILES |
| --- | --- | --- | --- | --- | --- | --- | --- | --- | --- | --- | --- | --- | --- | --- | --- | --- |
| 36.0% | 780 nM | 65.0% | 80 nM | 62.0% | 20 nM | 49.5% | 210 nM | 60.5% | 20 nM | 32.0% | 620 nM | 59.0% | 170 nM | 60.5% | 120 nM | CCn1cnc(-c2nn3c(=O)cc(-c4ccc(C5CCCCC5)cc4)[nH]c3c2C(=O)N2CC(CF)C2)c1 [Compound 31, 5-(4-Cyclohexylphenyl)-2-(1-ethyl-1H-imidazol-4-yl)-3-(3-(fluoromethyl)azetidine-1-carbonyl)pyrazolo[1,5-a]pyrimidin-7(4H)-one] |
| 38.5% | 380 nM | 65.0% | 50 nM | 61.5% | 10 nM | 49.5% | 60 nM | 59.0% | 10 nM | 31.0% | 290 nM | 61.0% | 60 nM | 59.5% | 50 nM | Cn1cnc(-c2nn3c(=O)cc(-c4ccc(C5CCCCC5)cc4)[nH]c3c2C(=O)N2CC(CF)C2)c1 [Compound 32, 5-(4-Cyclohexylphenyl)-3-(3-(fluoromethyl)azetidine-1-carbonyl)-2-(1-methyl-1H-imidazol-4-yl)pyrazolo[1,5-a]pyrimidin-7(4H)-one] |
| 52.5% | 180 nM | 72.0% | 70 nM | 71.5% | 20 nM | 57.0% | 150 nM | 71.5% | 20 nM | 37.0% | 140 nM | 68.0% | 130 nM | 59.0% | 80 nM | CCN(C)C(=O)c1nn2c(=O)cc(-c3ccc(C4CCCCC4)cc3)[nH]c2c1C(=O)N1CC(CF)C1 [Compound 35, 5-(4-Cyclohexylphenyl)-N-ethyl-3-(3-(fluoromethyl)azetidine-1-carbonyl)-N-methyl-7-oxo-4,7-dihydropyrazolo[1,5-a]pynmidine-2-carboxamide] |
| 48.0% | 1020 nM | 70.0% | 70 nM | 73.5% | 20 nM | 60.0% | 200 nM | 73.5% | 20 nM | 38.0% | 850 nM | 71.0% | 180 nM | 60.5% | 80 nM | O=C(c1nn2c(=O)cc(-c3ccc(C4CCCCC4)cc3)[nH]c2c1C(=O)N1CC(CF)C1)N1CCCC1 [Compound 36, 5-(4-Cyclohexylphenyl)-3-(3-(fluoromethyl)azetidine-1-carbonyl)-2-(pyrrolidine-1-carbonyl)pyrazolo[1,5-a]pyrimidin-7(4H)-one] |
